In US6849728B1, “GLUT10: a glucose transporter in the type 2 diabetes linked region of chromosome 20Q12-13.1” (Wake Forest University Health Sciences, priority 2000, dated 2005):
Where a chain is given by its changes, count along the chain named. “Also recorded” adds a separate entry of the source. One block for each molecule: values may come before it.

What was measured:
human GLUT10 = target: T1, human GLUT10 (Homo sapiens, UniProt O95528); assay: 2-DOG uptake in Xenopus oocytes injected with GLUT10 RNA; assay type: cell-based; settings: for effect of competitors on [3H]2-DOG uptake: 100-fold excess: 25 mM competitor
T1 construct: A full-length GLUT10 cDNA was cloned into the expression vector pCMV-Tag4a (Stratagene); expressed in transfected cells; host or cells: Xenopus laevis oocytes injected with capped mRNA
T1 sequence (O95528 1-541): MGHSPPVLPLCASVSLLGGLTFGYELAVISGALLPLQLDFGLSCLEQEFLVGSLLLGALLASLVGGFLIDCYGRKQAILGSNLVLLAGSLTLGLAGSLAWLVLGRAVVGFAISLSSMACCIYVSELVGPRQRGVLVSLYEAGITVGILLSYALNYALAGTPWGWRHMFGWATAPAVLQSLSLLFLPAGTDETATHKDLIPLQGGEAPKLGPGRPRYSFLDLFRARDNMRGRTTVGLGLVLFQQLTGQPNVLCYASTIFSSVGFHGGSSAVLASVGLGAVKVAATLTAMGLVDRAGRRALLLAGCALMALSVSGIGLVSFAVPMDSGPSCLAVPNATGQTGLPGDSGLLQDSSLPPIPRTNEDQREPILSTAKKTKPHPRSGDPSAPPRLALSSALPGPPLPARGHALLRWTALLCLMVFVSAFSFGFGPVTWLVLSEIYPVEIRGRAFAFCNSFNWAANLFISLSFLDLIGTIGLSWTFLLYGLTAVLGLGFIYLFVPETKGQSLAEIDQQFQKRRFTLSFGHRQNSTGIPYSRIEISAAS
From the text: (§1) Material and Methods. A full-length GLUT10 cDNA was cloned into the expression vector pCMV-Tag4a (Stratagene). A PCR-based strategy employing Pfu polymerase was used for site-directed mutagenesis to generate the GLUT10 single nucleotide polymorpisms. The PCR products were digested with Eco RI, subcloned into pCMV-Tag4a, and the complete insert was sequenced to confirm the identity of the A206T and A287T GLUT10 glucose transporter cDNAs. The pcDNA3.1/GS plasmids expressing the full-length GLUT3 and GLUT4 cDNA were purchased from Invitrogen Corporation. Capped mRNA was generated using the mMESSAGE mMACHINE™ transcription kit (Ambion Inc).
Adult female Xenopus laevis were obtained from Xenopus Express (Homosassa, Fla.) and housed at 17-19° C. on a twelve-hour light/dark cycle. Stage V-VI oocytes were removed from anesthetized frogs and placed in isolation media (108 mM NaCl, 1 mM EDTA, 2 mM KCl, 10 mM HEPES, pH 7.5). The oocyte follicular layer was removed by immersion in 0.5 mg/ml collagenase buffer (83 mM NaCl, 2 mM KCl, 1 mM MgCl2, and 5 mM HEPES, pH 7.5). Isolated oocytes were maintained in modified Barth's saline (MBS; 88 mM NaCl, 1 mM KCl, 10 mM HEPES, 0.82 mM MgSO4, 2.4 mM NaHCO3, 0.91 mM CaCl2, and 0.33 mM Ca(NO3)2, pH 7.5). Visually healthy oocytes were injected with 30 nl of either a mRNA solution (1.0 μg/μl) or sterile water at the interface between the animal and vegetal poles. Individual oocytes were placed in 96-well microtiter plates (Costar Corporation) containing MBS plus 2 mM sodium pyruvate, 0.5 mM theophylline, 10 U/ml penicillin, 10 mg/l streptomycin and 50 mg/] gentamycin (Sigma) at 22° C.
(§2) DOG (final specific activity=0.5 Ci/mmol) (NEN Life Science Products, Inc.; American Radiochemical Company). Competitors, inhibitors, or insulin were added to the incubation as indicated. Uptake was terminated by removal of the radioactive solution and three 500 μl washes with ice-cold MBS containing 0.1 mM phloretin (Sigma). Pools of oocytes were dissolved in 10% SDS, mixed with scintillation fluid, and internalized radioactivity was measured by scintillation spectrometry using a Beckman LS-600 scintillation counter. Data are expressed as the arithmetic mean or median of duplicate or triplicate pools of 4 to 12 oocytes at each data point. Transport kinetics were analyzed by best-fit analysis of data points (Cricket Graph, Computer Associates) and Eadie-Hofstee transformation.

GLUT10 A28T = target: T2, GLUT10 A28T (Homo sapiens, UniProt O95528, A287T); assay: 2-DOG uptake in Xenopus oocytes expressing GLUT10 A28T isoform; assay type: cell-based; settings: pre-incubation with insulin
T2 construct: A full-length GLUT10 cDNA was cloned into the expression vector pCMV-Tag4a (Stratagene); expressed in transfected cells; host or cells: Xenopus laevis oocytes injected with capped mRNA
T2 sequence (O95528 1-541 A287T): T1 sequence (O95528 1-541) with A287T
From the text: as §1
(§3) Adult female Xenopus laevis were obtained from Xenopus Express (Homosassa, Fla.) and housed at 17-19° C. on a twelve-hour light/dark cycle. […]
as §2, with “Competitors, inhibitors, or insulin were added to the incubation as indicated. Uptake was terminated by removal of the radioactive solution and three 500 μl washes with ice-cold MBS containing 0.1 mM phloretin (Sigma).” left out, “transformation. […]” for “transformation.”

GLUT10 A206T = target: T3, GLUT10 A206T (Homo sapiens, UniProt O95528, A206T); assay: 2-DOG uptake in Xenopus oocytes expressing GLUT10 A206T isoform; assay type: cell-based; settings: pre-incubation with insulin
T3 construct: A full-length GLUT10 cDNA was cloned into the expression vector pCMV-Tag4a (Stratagene); expressed in transfected cells; host or cells: Xenopus laevis oocytes injected with capped mRNA
T3 sequence (O95528 1-541 A206T): T1 sequence (O95528 1-541) with A206T
From the text: as §1, §3
as §2, with “Competitors, inhibitors, or insulin were added to the incubation as indicated. Uptake was terminated by removal of the radioactive solution and three 500 μl washes with ice-cold MBS containing 0.1 mM phloretin (Sigma).” left out, “transformation. […]” for “transformation.”

human GLUT4 = target: T4, human GLUT4 (Homo sapiens, UniProt P14672); assay: 2-DOG uptake in Xenopus oocytes injected with GLUT4 RNA; assay type: cell-based; settings: pre-incubation with 100 μM insulin for 30 min, 250 μM [3H]2-DOG
T4 construct: The pcDNA3.1/GS plasmids expressing the full-length GLUT3 and GLUT4 cDNA were purchased from Invitrogen Corporation; host or cells: Xenopus laevis oocytes injected with capped mRNA
T4 sequence (P14672 1-509): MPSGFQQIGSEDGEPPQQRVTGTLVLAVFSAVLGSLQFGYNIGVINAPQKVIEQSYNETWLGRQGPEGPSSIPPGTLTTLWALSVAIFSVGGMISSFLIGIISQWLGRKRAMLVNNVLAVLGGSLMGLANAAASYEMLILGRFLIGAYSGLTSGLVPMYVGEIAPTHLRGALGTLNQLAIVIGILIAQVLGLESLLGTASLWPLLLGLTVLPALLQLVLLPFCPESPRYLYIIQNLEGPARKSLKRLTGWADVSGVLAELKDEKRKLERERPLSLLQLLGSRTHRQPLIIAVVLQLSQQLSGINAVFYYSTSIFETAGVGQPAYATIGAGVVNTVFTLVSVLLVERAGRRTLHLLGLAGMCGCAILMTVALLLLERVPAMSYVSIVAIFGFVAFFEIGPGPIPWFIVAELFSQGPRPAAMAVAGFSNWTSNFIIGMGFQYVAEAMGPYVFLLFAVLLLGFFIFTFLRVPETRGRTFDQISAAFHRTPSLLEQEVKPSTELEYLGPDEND
From the text: as §1, §3
as §2, with “Competitors, inhibitors, or insulin were added to the incubation as indicated. Uptake was terminated by removal of the radioactive solution and three 500 μl washes with ice-cold MBS containing 0.1 mM phloretin (Sigma).” left out

[1] = substrate: O=CC[C@@H](O)[C@H](O)[C@H](O)CO; assay: cells, lysate or membranes; settings: Eadie-Hofstee analysis, pH 7.5
[2] = 250 μM [3H]2-DOG, 30 min at 22° C.

Molecule: O=CC[C@@H](O)[C@H](O)[C@H](O)CO [2-DOG, 2-deoxy-D-glucose]
2-DOG uptake over the water-injected controls (human GLUT10; 25 μM 2-DOG, 30 min at 22° C., 3 days after injection of 30 ng GLUT10 RNA): 5 fold
effect of competitors on [3H]2-DOG uptake (human GLUT10; [2]): effectively competed
Vmax of 2-DOG uptake (human GLUT10; GLUT10 RNA-injected oocytes, 30 min at 22° C., Eadie-Hofstee analysis): 0.85 pmol oocyte^−1 30 min^−1
Km (human GLUT10; read-out: apparent Km for 2-DOG transport, GLUT10 mRNA-injected oocytes, 30 min, Eadie-Hofstee analysis): ~300 µM

Molecule: O=C[C@H](O)[C@@H](O)[C@@H](O)[C@H](O)CO [D-galactose]
effect of competitors on [3H]2-DOG uptake (human GLUT10; [2]): inhibited 2-DOG uptake but less effectively; also recorded: competed

Molecule: O=C(CCc1ccc(O)cc1)c1c(O)cc(O)cc1O [phloretin]
effect of phloretin on 2-DOG uptake (human GLUT10; 100 μM phloretin, 25 μM [3H]2-DOG, 30 min at 22° C.): inhibited

B1: human GLUT10 (Homo sapiens) (protein)
chain: T1 sequence (O95528 1-541)
Km ([1]; other: GLUT10 RNA (30 ng) injected oocytes, 30 min at 22° C., corrected for water-injected background): 280 µM
Km ([1]; other: GLUT10 mRNA-injected oocytes, 30 min, 22.0 °C): 300 µM

The next lines start with the values.

effect of competitors on [3H]2-DOG uptake (human GLUT10; [2]): effectively competed
Molecule: O=C[C@H](O)[C@@H](O)[C@H](O)[C@H](O)CO [D-glucose]

effect of competitors on [3H]2-DOG uptake (human GLUT10; [2]): did not inhibit
Molecule: O=C(CO)[C@@H](O)[C@H](O)[C@H](O)CO [fructose]

insulin stimulation of 2-DOG uptake activity (GLUT10 A28T): not stimulated
insulin stimulation of 2-DOG uptake activity (GLUT10 A206T): not stimulated
insulin stimulation of 2-DOG transport (human GLUT4): stimulated
insulin stimulation of glucose transport (human GLUT10; pre-incubation with insulin, oocytes injected with GLUT10 mRNA): approximately 2 fold
insulin stimulation of 2-DOG transport (human GLUT10; wild type GLUT10, pre-incubation with 100 μM insulin for 30 min, 250 μM [3H]2-DOG): stimulated
Molecule: insulin
